The target in the assay is T1, platelet P2Y1 receptor (Homo sapiens, UniProt P47900).
T1 construct: expressed in transfected cells
As to the kind of experiment: P2Y1 receptor binding assay ([β-33P]-2-thiomethyl ADP). As to conditions: binding of 0.3 nM [β-33P]-2-thiomethyl ADP, hP2Y1 expressing 132N1 cell membrane, 25° C., 60 minutes.

T1 sequence (P47900 whole entry): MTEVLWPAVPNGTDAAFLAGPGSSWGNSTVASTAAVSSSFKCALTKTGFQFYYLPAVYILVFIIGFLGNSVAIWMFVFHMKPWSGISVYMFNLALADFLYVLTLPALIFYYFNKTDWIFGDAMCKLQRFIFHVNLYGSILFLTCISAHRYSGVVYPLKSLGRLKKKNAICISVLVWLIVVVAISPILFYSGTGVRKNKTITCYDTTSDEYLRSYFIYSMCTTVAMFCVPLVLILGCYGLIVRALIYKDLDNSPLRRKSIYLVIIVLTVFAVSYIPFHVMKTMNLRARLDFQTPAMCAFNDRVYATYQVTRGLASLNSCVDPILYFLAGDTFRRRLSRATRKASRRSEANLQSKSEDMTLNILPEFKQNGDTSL

In general, IC50 refers to the concentration that gives 50% inhibition. Read a low IC50 as inhibition by little substance. Turning to `Cc1cc(Oc2ccncc2NC(=O)Nc2ccc(OC(F)(F)F)cc2)n(-c2ccccc2)n1` [Example 23, 1-[4-(5-Methyl-2-phenyl-2H-pyrazol-3-yloxy)-pyridin-3-yl]-3-(4-trifluoromethoxy-phenyl)-urea], the IC50 is 8990 nM.
The result for `CCc1ccccc1-n1nc(C)cc1Oc1ccccc1NC(=O)Nc1ccc(N2CCCCC2)cc1` [Example 110, 1-(2-(1-(2-ethylphenyl)-3-methyl-1H-pyrazol-5-yloxy)phenyl)-3-(4-(piperidin-1-yl)phenyl)urea] reads 290 nM; that for `CCc1ccccc1-n1nc(C)cc1Oc1ccccc1NC(=O)Nc1ccc(Cl)cc1` [Example 111, 1-(4-chlorophenyl)-3-(2-(1-(2-ethylphenyl)-3-methyl-1H-pyrazol-5-yloxy)phenyl)urea], 133 nM.
The result for `Cc1cc(Oc2ccccc2NC(=O)Nc2ccc(OC(F)(F)F)cc2)n(-c2ccccc2C(F)(F)F)n1` [Example 8] reads 128 nM; that for `Cc1cc(Oc2ccccc2NC(=O)Nc2cc(F)ccc2F)n(-c2ccccc2)n1` [Example 34], 800 nM; that for `Cc1cc(Oc2ccccc2NC(=O)Nc2c(Cl)cccc2C(F)(F)F)n(-c2ccccc2)n1` [Example 59], > 10000 nM.
As for `Cc1cc(Oc2ccccc2NC(=O)Nc2ccc(OC(F)(F)F)cc2)n(-c2cccc(Cl)c2)n1` [Example 7], the half-inhibitory concentration (IC50) came out at 122 nM.
`Cc1cc(Oc2ccccc2NC(=O)Nc2ccc(OC(F)(F)F)cc2)n(-c2ccc(C(C)(C)C)cc2)n1` [Example 97, 1-(2-(1-(4-tert-butylphenyl)-3-methyl-1H-pyrazol-5-yloxy)phenyl)-3-(4-(trifluoromethoxy)phenyl)urea] displayed an IC50 of 339 nM.
With `CCc1ccccc1-n1nc(C)cc1Oc1ccccc1NC(=O)Nc1ccc(C(F)(F)F)cc1` [Example 107, 1-(2-(1-(2-ethylphenyl)-3-methyl-1H-pyrazol-5-yloxy)phenyl)-3-(4-(trifluoromethyl)phenyl)urea], the IC50 worked out at 60 nM.
Take `Cc1cc(Oc2ccccc2NC(=O)Nc2ccc(Br)cc2)n(-c2ccccc2Cl)n1` [Example 126, 1-(4-bromophenyl)-3-(2-(1-(2-chlorophenyl)-3-methyl-1H-pyrazol-5-yloxy)phenyl)urea]: the IC50 came out at 170 nM.
The same measure for `Cc1cc(Oc2ccccc2NC(=O)Nc2ccc(OC(F)(F)F)cc2)n(-c2ccc(F)cc2F)n1` [Example 14]: 133 nM.
Molecule `CC(C)(C)c1ccc(NC(=O)Nc2ccccc2Oc2cc(C(=O)O)nn2-c2ccccc2)cc1` [Example 27, 5-{2-[3-(4-tert-Butyl-phenyl)-ureido]-phenoxy}-1-phenyl-1H-pyrazole-3-carboxylic acid] registered an IC50 of 7220 nM.
The same measure for `CCc1ccccc1-n1nc(C)cc1Oc1ccccc1NC(=O)Nc1ccc(F)cc1F` [Example 106, 1-(2,4-difluorophenyl)-3-(2-(1-(2-ethylphenyl)-3-methyl-1H-pyrazol-5-yloxy)phenyl)urea]: 287 nM; for `Cc1cc(Oc2ccc(C#N)cc2NC(=O)Nc2ccc(OC(F)(F)F)cc2)n(-c2ccccc2)n1` [Example 32]: > 10000 nM.
The result for `Cc1cc(Oc2ccccc2NC(=O)Nc2ccc(C3CCS(=O)(=O)CC3)cc2)n(-c2ccccc2Cl)n1` [Example 129] reads > 10000 nM.
The same measure for `Cc1cc(Oc2ccccc2NC(=O)Nc2ccc(OC(F)(F)F)cc2)n(-c2ccc(F)cc2Cl)n1` [Example 114, 1-(2-(1-(2-chloro-4-fluorophenyl)-3-methyl-1H-pyrazol-5-yloxy)phenyl)-3-(4-(trifluoromethoxy)phenyl)urea]: 12 nM; for `O=C(Nc1ccc(OC(F)(F)F)cc1)Nc1ccccc1Oc1ccnn1-c1ccccc1` [Example 24, 1-[2-(2-Phenyl-2H-pyrazol-3-yloxy)-phenyl]-3-(4-trifluoromethoxy-phenyl)-urea]: 306 nM; for `Cc1cc(Oc2ccccc2NC(=O)Nc2c(C)cccc2Cl)n(-c2ccccc2)n1` [Example 62]: > 10000 nM.
For `CCOc1ccc(NC(=O)Nc2ccccc2Oc2cc(C)nn2-c2ccccc2)cc1` [Example 41], the IC50 amounted to 5060 nM.
With `Cc1ccc(NC(=O)Nc2ccccc2Oc2cc(C)nn2-c2ccccc2)c(C)c1` [Example 60], the IC50 is > 10000 nM.
The result for `Cc1cc(Oc2ncccc2NC(=O)Nc2ccc(C(C)(C)C)cc2)n(-c2ccccc2)n1` [Example 21, 1-(4-tert-Butyl-phenyl)-3-[2-(5-methyl-2-phenyl-2H-pyrazol-3-yloxy)-pyridin-3-yl]-urea] reads 272 nM; that for `Cc1cc(Oc2ccccc2NC(=O)Nc2ccc(OC(F)(F)F)cc2)n(-c2ccccc2Br)n1` [Example 125, 1-(2-(1-(2-bromophenyl)-3-methyl-1H-pyrazol-5-yloxy)phenyl)-3-(4-(trifluoromethoxy)phenyl)urea], 182 nM; that for `COc1ccc(NC(=O)Nc2ccccc2Oc2cc(C)nn2-c2ccccc2)cc1Cl` [Example 42], 6980 nM.
On to `Cc1cc(Oc2ccccc2NC(=O)Nc2cccc(C#N)c2)n(-c2ccccc2)n1` [Example 46], for which the IC50 was > 10000 nM.

For the origin of these results see patent US20080269293A1, “PYRAZOLE DERIVATIVES AS ANTI-PLATELET AND ANTI-THROMBOTIC AGENTS” (Pfizer Inc., priority 2006, published 2008).
